Assay results reported in the supplement of paper PMC11821682.

Columns and labels:
Danio rerio embryo [1] = test: LEL larval photomotor response dark phase 120 hpf
Procedure: (§1)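 ZBEscreen: dechorionated Tropical 5D zebrafish embryos were exposed from 4 hpf in 96-well plates (1% DMSO, 28 °C). All compounds were first tested at 100 µM; hits were retested at 0.005-100 µM. Morphology and mortality were scored at 120 hpf and fitted as BMC10 (3-parameter log-logistic, extra risk). The embryonic photomotor response at 24 hpf and the larval photomotor response at 120 hpf are given as lowest effect levels (K-S test, p<0.01). NA = not significant up to 100 µM; NT = not tested.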

Danio rerio embryo [2] = test: LEL embryonic photomotor response 24 hpf
Procedure: as §1

Danio rerio embryo [3] = test: BMC10 mortality 24-120 hpf; higher = less toxic
Procedure: as §1

HL-60 = test: Cell Health Index (toxicity pseudo-probability over dose series) (index 0-1); higher = more cytotoxic / cell stress;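 note: HL-60 cells exposed 4 h at 37 °C to ten threefold dilutions spanning 5 nM to 100 µM, multiparametric flow cytometry features scored by machine-learning classification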
Danio rerio embryo [4] = test: BMC10 any morphological effect or mortality at 120 hpf; higher = less toxic

| SMILES | LEL larval photomotor response dark phase 120 hpf (Danio rerio embryo [1]) | LEL embryonic photomotor response 24 hpf (Danio rerio embryo [2]) | BMC10 mortality 24-120 hpf (Danio rerio embryo [3]) | Cell Health Index (HL-60) | BMC10 any morphological effect or mortality (Danio rerio embryo [4]) |
| --- | --- | --- | --- | --- | --- |
| CC(=O)c1cc([N+](=O)[O-])c(Sc2cccc(Cl)c2Cl)s1 | > 100 µM | > 100 µM | 27.7 µM | 0.789 | 0.246 µM |
| O=c1cc(-c2cccc3c2Sc2ccccc2S3)oc(N2CCOCC2)c1 | > 100 µM | 11.1 µM | 9.46 µM | 0.663 | 5.74 µM |
| COc1ccc2c(c1)CC[C@@H]1[C@@H]2CC[C@]2(C)[C@@H](NCCCCCCN3C(=O)C=CC3=O)CC[C@@H]12 | > 100 µM | 11.1 µM | 0.101 µM | 0.348 | 0.134 µM |
| C=C[C@H](OC(C)=O)c1ccc(OC(C)=O)cc1 (racemic) [(±)-1'-Acetoxychavicol acetate] | > 100 µM | > 100 µM | 1.96 µM | 0.778 | 1.32 µM |
| COC(=O)C1=C(C)N=C(c2ncc(F)cc2F)NC1c1ccc(F)cc1Cl (racemic) [(±)-BAY 41-4109] | > 100 µM | 11.1 µM | 12.6 µM | 0.592 | 8.25 µM |
| CN1CCN(C(c2ccc(Cl)cc2)c2ccc(Cl)cc2)CC1 [1-[bis(4-chlorophenyl)methyl]-4-methyl-piperazine] | > 100 µM | 11.1 µM | 16.1 µM | 0.934 | 12.6 µM |
| CC(=O)c1c(O)cc(O)c(C(C)=O)c1O [2,4-Diacetylphloroglucinol] | > 100 µM | 3.7 µM | 3.32 µM | 0.669 | 1.45 µM |
| O[C@H]1[C@@]2([H])[C@](CC[C@]2([H])[C@](O)(C)CC/C=C(C)/C)(C)[C@]3(C)CC[C@]4([H])[C@@](CC[C@H](O[C@]5([H])O[C@H](CO)[C@@H](O)[C@H](O)[C@H]5O)C4(C)C)(C)[C@@]3([H])C1 [20(S)-Ginsenoside Rh2] | > 100 µM | 11.1 µM | 9.35 µM | 0.787 | > 100 µM |
| CC1(C)[C@@H](O)CC[C@@]2(C)[C@@]1([H])[C@@H](O)C[C@]3(C)[C@]2([H])C[C@@H](O)[C@@]4([H])[C@@]3(C)CC[C@]4([H])[C@@](C)(O)CC/C=C(C)/C [20(S)-Protopanaxatriol] | > 100 µM | 33.3 µM | 25.7 µM | 0.803 | 16.2 µM |
| Cc1sc2c(c1C)C(c1ccc(Cl)cc1)=N[C@@H](CC(=O)OC(C)(C)C)c1nnc(C)n1-2 [(+)-JQ1] | > 100 µM | 3.7 µM | 1.15 µM | 0.87 | 1.13 µM |
| Cc1cc(Nc2nc(N[C@@H](C)c3ccc(F)cc3)c(C#N)cc2F)n[nH]1 [AZ-960] | > 100 µM | 3.7 µM | 1.95 µM | 0.78 | 1.27 µM |
| O=C1c2cccc(O)c2C(=O)c2c(O)cc(CO)cc21 [Aloe-emodin] | > 100 µM | 3.7 µM | 17.1 µM | 0.198 | 9.08 µM |
| C[C@H]1[C@H](OC(=O)CCC(=O)O)O[C@@H]2O[C@@]3(C)CC[C@H]4[C@H](C)CC[C@@H]1[C@@]24OO3 [Artesunate] | > 100 µM | > 100 µM | 9.08 µM | 0.146 | 7.91 µM |
| C=C(C)[C@@H]1CC[C@]2(C(=O)O)CC[C@]3(C)[C@H](CC[C@@H]4[C@@]5(C)CC[C@H](OC(=O)CC(C)(C)C(=O)O)C(C)(C)[C@@H]5CC[C@]43C)[C@@H]12 [Bevirimat] | > 100 µM | 11.1 µM | 3.82 µM | 0.321 | 1.29 µM |
| COC(=O)c1cc(OC)c2c(c1-c1c(CO)cc(OC)c3c1OCO3)OCO2 [Bicyclol] | > 100 µM | 0.046 µM | 10.7 µM | 0.207 | 4.07 µM |
| CC(C)(C)C(O)C(Oc1ccc(-c2ccccc2)cc1)n1cncn1 (stereo not given) [Bitertanol] | 11.1 µM | 33.3 µM | 30.3 µM | 0.408 | 16.4 µM |
| Oc1c(Cl)cc(Cl)cc1Sc1cc(Cl)cc(Cl)c1O [Bithionol] | > 100 µM | 3.7 µM | 0.795 µM | 0.826 | 0.577 µM |
| CC(C)C[C@H](NC(=O)[C@H](Cc1ccccc1)NC(=O)c1cnccn1)B(O)O [Bortezomib] | 0.14 µM | > 100 µM | 17.4 µM | 0.24 | 13.2 µM |
| C[C@H]1CCC/C=C/[C@@H]2C[C@H](O)C[C@H]2[C@H](O)/C=C/C(=O)O1 [Brefeldin A] | > 100 µM | 11.1 µM | 3.95 µM | 0.226 | 1.09 µM |
| Cc1c(-c2ccc(-c3ccccc3F)cc2)nc2ccc(F)cc2c1C(=O)O [Brequinar] | > 100 µM | 11.1 µM | 1.41 µM | 0.332 | 0.331 µM |
| C[C@]12CC[C@H](O)C[C@H]1CC[C@@H]1[C@@H]2CC[C@]2(C)[C@@H](c3ccc(=O)oc3)C[C@H]3O[C@]132 [Bufogenin] | > 100 µM | 11.1 µM | 1.41 µM | 0.504 | 2.23 µM |
| COc1ccc(-c2oc3cc(OC)c(OC)c(O)c3c(=O)c2OC)cc1O [Casticin] | > 100 µM | 3.7 µM | 1.28 µM | 0.355 | 1.26 µM |
| CC[C@H]1CN2CCc3cc(OC)c(OC)cc3[C@@H]2C[C@@H]1C[C@H]1NCCc2cc(O)c(OC)cc21 [Cephaeline] | 0.41 µM | 3.7 µM | 0.159 µM | 0.562 | 0.069 µM |
| COc1ccc2cc1Oc1ccc(cc1)C[C@H]1c3c(cc4c(c3Oc3cc5c(cc3OC)CCN(C)[C@@H]5C2)OCO4)CCN1C [Cepharanthine] | 0.41 µM | > 100 µM | 10.9 µM | 0.911 | 10.5 µM |
| CN1Cc2c(ccc3c2OCO3)[C@@H]2[C@H]1c1cc3c(cc1C[C@@H]2O)OCO3 [Chelidonine] | > 100 µM | > 100 µM | 0.079 µM | 0.277 | 0.064 µM |
| CN1CCN(C(c2ccccc2)c2ccc(Cl)cc2)CC1.Cl (stereo not given) [Chlorcyclizine] | > 100 µM | 11.1 µM | 15.9 µM | 0.478 | 8.84 µM |

| SMILES | LEL larval photomotor response dark phase 120 hpf (Danio rerio embryo [1]) | LEL embryonic photomotor response 24 hpf (Danio rerio embryo [2]) | BMC10 mortality 24-120 hpf (Danio rerio embryo [3]) | Cell Health Index (HL-60) | BMC10 any morphological effect or mortality (Danio rerio embryo [4]) |
| --- | --- | --- | --- | --- | --- |
| O=c1cc(-c2ccccc2)oc2cc(O)cc(O)c12 [Chrysin] | 11.1 µM | 33.3 µM | 28.3 µM | 0.435 | 28.6 µM |
| CC(=O)O[C@H]1[C@H]2O[C@]23[C@@H]2CC[C@@H]4C[C@@H](O)CC[C@]4(C)[C@H]2CC[C@]3(C)[C@H]1c1ccc(=O)oc1 [Cinobufagin] | 33.3 µM | 1.23 µM | 29.9 µM | 0.556 | 27.2 µM |
| Cl.Clc1ccc(Cn2c(CN3CCCC3)nc3ccccc32)cc1 [Clemizole] | > 100 µM | 3.7 µM | 10.1 µM | 0.453 | 4.04 µM |
| C/C=C(/C)C(=O)OC(C)(C)[C@@H]1Cc2c(ccc3ccc(=O)oc23)O1 [Columbianadin] | > 100 µM | 3.7 µM | 4.89 µM | 0.399 | 4.14 µM |
| COc1cc(/C=C\C(=O)CC(=O)/C=C\c2ccc(O)c(OC)c2)ccc1O [Curcumin] | > 100 µM | > 100 µM | 40 µM | 0.401 | 30.8 µM |
| c1ccc(CNc2nc(NCc3ccccc3)c3ccccc3n2)cc1 [DBeQ] | > 100 µM | 1.23 µM | 1.31 µM | 0.929 | 1.15 µM |
| CCC[C@H](NC(=O)/C(C#N)=C/c1cccc(Br)n1)c1ccccc1 [Degrasyn] | > 100 µM | 1.23 µM | 1.92 µM | 0.909 | 0.411 µM |
| O[C@H]1CC[C@H](Nc2nc(-c3ccccc3)nc3[nH]ccc23)CC1 [Derenofylline] | > 100 µM | 100 µM | 36.8 µM | 0.201 | 22.7 µM |
| C[C@H]1[C@@H](O)O[C@@H]2O[C@@]3(C)CC[C@H]4[C@H](C)CC[C@@H]1[C@@]24OO3 [Dihydroartemisinin] | 1.23 µM | > 100 µM | 2.11 µM | 0.215 | 2.99 µM |
| COc1cccc2c1C(=O)c1c(O)c3c(c(O)c1C2=O)C[C@@](O)(C(=O)CO)C[C@@H]3O[C@H]1C[C@H](N)[C@H](O)[C@H](C)O1.Cl [Doxorubicin] | > 100 µM | 11.1 µM | 7.71 µM | 0.852 | 3.18 µM |
| O=C(N/N=C/c1ccc(O)c(O)c1)c1cc2ccccc2cc1O [Dynasore] | > 100 µM | 33.3 µM | 7.92 µM | 0.48 | 10.2 µM |
| CC(C)(C)c1cc(C(=O)/C(C#N)=N/Nc2cccc(Cl)c2)no1 [ESI-09] | > 100 µM | 11.1 µM | 0.13 µM | 0.698 | 0.422 µM |
| O=C1Nc2ccc(Cl)cc2[C@@](C#CC2CC2)(C(F)(F)F)O1 [Efavirenz] | > 100 µM | 3.7 µM | 12 µM | 0.874 | 1.3 µM |
| COc1ccc2cc1Oc1ccc(cc1)C[C@H]1c3cc(c(OC)cc3CCN1C)Oc1c(O)c(OC)cc3c1[C@H](C2)N(C)CC3 [Fangchinoline] | > 100 µM | > 100 µM | 46.2 µM | 0.884 | 6.15 µM |
| CN1CC[C@H](c2c(O)cc(O)c3c(=O)cc(-c4ccccc4Cl)oc23)[C@H](O)C1.Cl [Flavopiridol] | > 100 µM | 3.7 µM | 1.71 µM | 0.49 | 1.2 µM |
| NC(=O)c1cccc(-c2cc(Nc3ccc(OC(F)(F)F)cc3)ncn2)c1 [GNF-2] | > 100 µM | 11.1 µM | 4.78 µM | 0.869 | 3.7 µM |
| O=C(NCCO)c1cccc(-c2cc(Nc3ccc(OC(F)(F)F)cc3)ncn2)c1 [GNF-5] | 33.3 µM | > 100 µM | 36.2 µM | 0.81 | 28.6 µM |
| O=c1c(O)c(-c2ccccc2)oc2cc(O)cc(O)c12 [Galangin] | > 100 µM | 100 µM | 32.8 µM | 0.411 | 12.3 µM |
| CC1(C)C=Cc2c(ccc3c2OC[C@@H](c2ccc(O)cc2O)C3)O1 [Glabridin] | > 100 µM | 11.1 µM | 9.73 µM | 0.58 | 3.57 µM |
| Fc1cc(F)c2c(c1)C1C=CCC1C(c1cccnc1)N2 (stereo not given) [Golgicide A] | > 100 µM | 3.7 µM | 2.32 µM | 0.317 | 1.37 µM |
| CC(C)(C)Oc1cccc2nc(N)nc(N)c12 [HZ-1157] | > 100 µM | 33.3 µM | 16.1 µM | 0.463 | > 100 µM |
| COC(=O)C[C@](O)(CCC(C)(C)O)C(=O)O[C@@H]1C(OC)=C[C@]23CCCN2CCc2cc4c(cc2[C@H]13)OCO4 [Harringtonine] | > 100 µM | 33.3 µM | 26.6 µM | 0.376 | 10.8 µM |
| CC(C)c1cccc(=O)c(O)c1 [Hinokitiol] | > 100 µM | 33.3 µM | 10.1 µM | 0.335 | 3.83 µM |
| C=CCc1ccc(O)c(-c2ccc(O)c(CC=C)c2)c1 [Honokiol] | > 100 µM | 3.7 µM | 9.2 µM | 0.542 | 5.7 µM |
| O=C1C=CC2=C(C(OC/C=C(C)/C)=C(OC=C3)C3=C2)O1 [Imperatorin] | > 100 µM | 3.7 µM | 10.8 µM | 0.307 | 2.05 µM |
| NC(=O)c1ccc(I)c([N+](=O)[O-])c1 [Iniparib] | > 100 µM | 33.3 µM | 33.9 µM | 0.283 | 10.2 µM |
